System: hepatocytes
Experiment: Seq-Well scRNA-Seq of hepatocytes after APAP overdose (signature scores, DEG vs untreated)
Type: in vivo, mouse
Conditions: A6 vs UT

## CC(=O)Nc1ccc(O)cc1 [APAP, acetaminophen]
  Med13 A6logFC: 0.2949
  Med13 avg_logFC: 0.2949
  Med13 pct.1: 0.325
  Megf9 A6logFC: 0.2769
  Megf9 avg_logFC: 0.2769
  Megf9 pct.1: 0.289
  Mettl7b avg_logFC: −0.4527
  Mettl7b pct.1: 0.647
  Mettl20 avg_logFC: −0.3314
  Mettl20 pct.1: 0.119
  Mfsd2a avg_logFC: 0.6661
  Mgea5 A6logFC: 0.3263
  Mgea5 avg_logFC: 0.3263
  Mgea5 pct.1: 0.413
  Mgst1 avg_logFC: −1.06
  Minos1 avg_logFC: −0.4555
  Minos1 pct.1: 0.332
  Mlycd avg_logFC: −0.2909
  Mlycd pct.1: 0.329
  Mmp8 avg_logFC: 0.359
  Mmp14 avg_logFC: 0.2889
  Mmp14 pct.1: 0.253
  Mpc2 avg_logFC: −0.4828
  Mpc2 pct.1: 0.599
  Mpeg1 avg_logFC: 0.4935
  Mpeg1 pct.1: 0.263
  Mrap avg_logFC: 0.8841
  Mrp63 avg_logFC: −0.4422
  Mrp63 pct.1: 0.277
  Mrpl11 A6logFC: −0.2685
  Mrpl15 A6logFC: −0.2912
  Mrpl20 A6logFC: −0.3093
  Mrpl20 avg_logFC: −0.3093
  Mrpl20 pct.1: 0.301
  Mrpl28 A6logFC: −0.2699
  Mrpl28 avg_logFC: −0.2699
  Mrpl28 pct.1: 0.229
  Mrpl33 A6logFC: −0.2654
  Mrpl34 A6logFC: −0.2838
  Mrpl41 A6logFC: −0.2674
  Mrpl42 A6logFC: −0.2845
  Mrps12 A6logFC: −0.2504
  Mrps12 avg_logFC: −0.2504
  Mrps12 pct.1: 0.193
  Mrps24 avg_logFC: −0.3904
  Mrps24 pct.1: 0.31
  Msrb1 avg_logFC: −0.599
  Mt1 avg_logFC: 2.388
  Mt2 avg_logFC: 2.063
  Mthfd2 avg_logFC: 0.2624
  Mug2 avg_logFC: 0.3683
  Mug2 pct.1: 0.776
  Mup3 avg_logFC: −0.7035
  Mup4 avg_logFC: −0.9953
  Mup5 avg_logFC: −1.237
  Mup6 avg_logFC: −1.872
  Mup7 avg_logFC: −0.9414
  Mup8 avg_logFC: −0.7526
  Mup8 pct.1: 0.098
  Mup9 avg_logFC: −2.004
  Mup11 avg_logFC: −3.214
  Mup12 avg_logFC: −1.27
  Mup15 avg_logFC: −1.316
  Mup16 avg_logFC: −1.602
  Mup17 avg_logFC: −2.354
  Mup18 avg_logFC: −1.628
  Mup19 avg_logFC: −2.396
  Mup21 avg_logFC: −0.8272
  Mvd A6logFC: −0.2704
  Mxd1 A6logFC: 0.2978
  Mybbp1a avg_logFC: 0.4312
  Mybbp1a pct.1: 0.396
  Myeov2 A6logFC: −0.3052
  Myeov2 avg_logFC: −0.3052
  Myeov2 pct.1: 0.303
  Myh9 avg_logFC: 1.16
  Myl12a avg_logFC: 0.3908
  Myl12a pct.1: 0.461
  Myo1b A6logFC: 0.2624
  Myo1e avg_logFC: 0.6143
  Naa50 A6logFC: 0.2657
  Naa50 avg_logFC: 0.2657
  Naa50 pct.1: 0.444
  Naprt1 A6logFC: −0.3381
  Nars avg_logFC: 0.4378
  Nars pct.1: 0.606
  Ncl avg_logFC: 0.4845
  Ncl pct.1: 0.69
  Ndufa2 avg_logFC: −0.3965
  Ndufa2 pct.1: 0.492
  Ndufa3 avg_logFC: −0.4116
  Ndufa3 pct.1: 0.344
  Ndufa4 avg_logFC: −0.6831
  Ndufa5 A6logFC: −0.252
  Ndufa5 avg_logFC: −0.252
  Ndufa5 pct.1: 0.418
  Ndufa6 avg_logFC: −0.6136
  Ndufa7 avg_logFC: −0.5559
  Ndufa7 pct.1: 0.406
  Ndufa13 avg_logFC: −0.4388
  Ndufa13 pct.1: 0.549
  Ndufb3 A6logFC: −0.3272
  Ndufb6 avg_logFC: −0.5077
  Ndufb6 pct.1: 0.475
  Ndufb9 avg_logFC: −0.5038
  Ndufb9 pct.1: 0.661
  Ndufb10 A6logFC: −0.3004
  Ndufc2 avg_logFC: −0.4253
  Ndufc2 pct.1: 0.36
  Ndufs4 A6logFC: −0.3132
  Ndufs6 avg_logFC: −0.5379
  Ndufs6 pct.1: 0.482
  Ndufv2 A6logFC: −0.3276
  Ndufv2 avg_logFC: −0.3276
  Ndufv2 pct.1: 0.461
  Neat1 avg_logFC: 0.6374
  Neat1 pct.1: 0.31
  Nek7 A6logFC: 0.2911
  Nek7 avg_logFC: 0.2911
  Nek7 pct.1: 0.394
  Net1 A6logFC: 0.3479
  Nid1 avg_logFC: 0.3426
  Nit2 avg_logFC: −0.4859
  Nit2 pct.1: 0.301
  Nolc1 avg_logFC: 0.4722
  Nolc1 pct.1: 0.363
  Nop56 avg_logFC: 0.2657
  Nop56 pct.1: 0.282
  Nop58 avg_logFC: 0.6634
  Nploc4 A6logFC: 0.2918
  Nploc4 avg_logFC: 0.2918
  Nploc4 pct.1: 0.351
  Nqo2 A6logFC: −0.2678
  Nqo2 avg_logFC: −0.2678
  Nqo2 pct.1: 0.317
  Nr0b2 avg_logFC: −0.293
  Nr0b2 pct.1: 0.086
  Nr1i3 avg_logFC: −0.4127
  Nr1i3 pct.1: 0.165
  Nr2f6 avg_logFC: −0.3754
  Nr2f6 pct.1: 0.234
  Nrip1 avg_logFC: 0.2729
  Nrip1 pct.1: 0.246
  Nucks1 A6logFC: 0.3558
  Nudt4 A6logFC: 0.2542
  Nudt7 avg_logFC: −1.564
  Oaf avg_logFC: −0.7329
  Oat avg_logFC: −1.225
  PM20l1 avg_logFC: 0.3085
  PM20l1 pct.1: 0.372
  Pa2g4 A6logFC: 0.2893
  Pa2g4 avg_logFC: 0.2893
  Pa2g4 pct.1: 0.492
  Pabpc1 avg_logFC: 0.4101
  Pabpc1 pct.1: 0.697
  Pah avg_logFC: −0.5221
  Pak2 avg_logFC: 0.2815
  Pak2 pct.1: 0.308
  Papss2 A6logFC: −0.2545
  Papss2 avg_logFC: −0.2545
  Papss2 pct.1: 0.337
  Paqr9 A6logFC: −0.3323
  Park7 avg_logFC: −0.2602
  Park7 pct.1: 0.601
  Pbld1 avg_logFC: −0.4425
  Pbld1 pct.1: 0.315
  Pcbd1 avg_logFC: −0.6878
  Pck1 avg_logFC: −0.6522
  Pcm1 A6logFC: 0.2654
  Pcm1 avg_logFC: 0.2654
  Pcm1 pct.1: 0.274
  Pde3b A6logFC: −0.259
  Pde3b avg_logFC: −0.259
  Pde3b pct.1: 0.243
  Pdia4 avg_logFC: −0.2719
  Pdia4 pct.1: 0.43
  Pdia6 avg_logFC: −0.39
  Pdia6 pct.1: 0.47
  Pdzd8 A6logFC: 0.2863
  Pdzd8 avg_logFC: 0.2863
  Pdzd8 pct.1: 0.36
  Pecr avg_logFC: −0.3981
  Pecr pct.1: 0.446
  Pet100 A6logFC: −0.28
  Pfkfb2 avg_logFC: 0.29
  Pfkfb2 pct.1: 0.26
  Pgls A6logFC: −0.2747
  Pgls avg_logFC: −0.2747
  Pgls pct.1: 0.22
  Phf20l1 A6logFC: 0.3085
  Phlda1 avg_logFC: 0.5492
  Pi4k2a A6logFC: 0.3536
  Picalm avg_logFC: 0.7545
  Pigr avg_logFC: 0.3487
  Pigr pct.1: 0.947
  Pkp4 A6logFC: 0.323
  Pkp4 avg_logFC: 0.323
  Pkp4 pct.1: 0.401
  Pla2g7 avg_logFC: 0.2823
  Pla2g7 pct.1: 0.119
  Plbd2 A6logFC: 0.2649
  Plbd2 avg_logFC: 0.2649

Source: US20230053540A1, “TREATMENT OF LIVER INJURY” (Massachusetts Institute of Technology, priority 2019, published 2023)
